Reference: patent publication US20110294772A1, “USE OF CYCLOSQUARAMIDE COMPOUNDS AS ANTI-TUMOUR AGENTS” (priority 2008, published 2011)

These compounds were tested on Jeko-1 (assay: cell viability assay). Conditions: Homo sapiens, JeKo-1, 48 h, cell viability, total incubation period 48 h; read-out: IC50 (μM) against Jeko-1 cells.
Format: cell-based, human
Method: The IC50 in cell viability assays were determined for some of the macrocycles prepared in Jeko-1 (B-cell lymphoma (MCL) type cells. With a total incubation period of 48 h.

**Q.** `CSCCC1Nc2c(c(=O)c2=O)NCCCN(C)CCCNc2c(c(=O)c2=O)NCCCN(C)CCCNc2c(c(=O)c2=O)NCCCN(C)CCCNc2c(c(=O)c2=O)NCCCN(C)CCCNc2c(c(=O)c2=O)NCCCNC1=O` (stereo not drawn) [Compound 3] was tested. Which IC50 did it give?
**A.** The IC50 was 34 µM.

**Q.** Which IC50 does the source give for `CSCCC1Nc2c(c(=O)c2=O)NCCCN(C)CCCNc2c(c(=O)c2=O)NCCCN(C)CCCNc2c(c(=O)c2=O)NCCCN(C)CCCNc2c(c(=O)c2=O)NCCCN(C)CCCNc2c(c(=O)c2=O)NCCCN(C)CCCNc2c(c(=O)c2=O)NCCCNC1=O` (stereo not drawn) [Compound 4] here?
**A.** Its IC50 is 24 µM.

Same assay, conditions: cell viability, total incubation period 48 h; read-out: IC50 (μM) against Jeko-1 cells

**Q.** How did the IC50 turn out when `CN1CCCNc2c(c(=O)c2=O)NCCCN(C)CCCNc2c(c(=O)c2=O)NCCCN(C)CCCNc2c(c(=O)c2=O)NCCCN(C)CCCNc2c(c(=O)c2=O)NCCCN(C)CCCNc2c(c(=O)c2=O)NCCCN(C)CCCNc2c(c(=O)c2=O)NCCC1` [Compound 1] was run?
**A.** Its IC50 is 27 µM.

**Q.** For `CN1CCCNc2c(c(=O)c2=O)NCCCN(C)CCCNc2c(c(=O)c2=O)NCCCN(C)CCCNc2c(c(=O)c2=O)NCCCN(C)CCCNc2c(c(=O)c2=O)NCCCN(C)CCCNc2c(c(=O)c2=O)NCCCN(C)CCCNc2c(c(=O)c2=O)NCCC1` [Compound 2], which IC50 is on record?
**A.** Its IC50 is 45 µM.

**Q.** With `CN1CCCNc2c(c(=O)c2=O)NCCCN(C)CCCNc2c(c(=O)c2=O)NCCCN(C)CCCNc2c(c(=O)c2=O)NCCCN(C)CCCNc2c(c(=O)c2=O)NCCCN(C)CCCNc2c(c(=O)c2=O)NCCCN(C)CCCNc2c(c(=O)c2=O)NCCC1` [Compound 5] as the compound, how does the IC50 read?
**A.** Its IC50 is 50 µM.

**Q.** With `CN1CCCNc2c(c(=O)c2=O)NCCCN(C)CCCNc2c(c(=O)c2=O)NCCCN(C)CCCNc2c(c(=O)c2=O)NCCCN(C)CCCNc2c(c(=O)c2=O)NCCCN(C)CCCNc2c(c(=O)c2=O)NCCCN(C)CCCNc2c(c(=O)c2=O)NCCC1` [Compound 11] as the compound, how does the IC50 read?
**A.** Its IC50 is 9.4 µM.
